Measurements: patent US7696161B2, “Exendin agonist compounds” (Amylin Pharmaceuticals, Inc., priority 1997, dated 2010)
pEC50: −log10 of the molar value.

What was measured:
C57BLKS/J-m-db mice = assay: Determination of blood glucose levels in db/db mice; format: in vivo; conditions: 1 μg subcutaneous, plasma glucose one hour after injection vs baseline
[1] = target: cyclase (RINm5f membranes); assay: Cyclase activation study (cAMP by SPA immunoassay, membranes); format: biochemical; conditions: cAMP in membranes, 20 minutes incubation at 37° C.
Description: GLP-1(7-36) [NH2] was purchased from Bachem (Torrance, Calif.). All other peptides were prepared using synthesis methods such as those described therein. All chemicals were of the highest commercial grade. The cAMP SPA immunoassay was purchased from Amersham. The radioligands were purchased from New England Nuclear (Boston, Mass.). […] Cells were grown to confluence then harvested and homogenized using on a Polytron homogenizer. Cell homogenates were stored frozen at −70° C. until used. […] Membranes and peptides were combined in […] of assay buffer in 96 well filter-bottom plates (Millipore Corp., Bedford, Mass.). […] Supernatant cAMP contents were quantitated by SPA immunoassay. […] The biological activity of a particular sample was expressed as an EC50 value, calculated as described above.

Row | pEC50 [1] | SMILES | % drop in glucose (C57BLKS/J-m-db mice) [%]
1 | 9.32 | CC[C@H](C)[C@H](NC(=O)[C@H](Cc1ccccc1)NC(=O)[C@H](CC(C)C)NC(=O)[C@H](CCCNC(=N)N)NC(=O)[C@@H](NC(=O)[C@H](C)NC(=O)[C@H](CCC(=O)O)NC(=O)[C@H](CCC(=O)O)NC(=O)[C@H](CCC(=O)O)NC(=O)[C@H](CC(C)C)NC(=O)[C@H](C)NC(=O)[C@H](CCCCN)NC(=O)[C@H](CO)NC(=O)[C@H](CC(C)C)NC(=O)[C@H](CC(=O)O)NC(=O)[C@H](CO)NC(=O)[C@@H](NC(=O)[C@H](Cc1ccccc1)NC(=O)[C@@H](NC(=O)CNC(=O)[C@H](CCC(=O)O)NC(=O)CNC(=O)[C@@H](N)Cc1c[nH]cn1)[C@@H](C)O)[C@@H](C)O)C(C)C)C(=O)N[C@@H](CCC(=O)O)C(=O)N[C@@H](Cc1ccccc1)C(=O)N[C@@H](CC(C)C)C(=O)N[C@@H](CCCCN)C(=O)N[C@@H](CC(N)=O)C(N)=O [Compound 11] | 40
2 | 7.81 | CC[C@H](C)[C@H](NC(=O)[C@H](Cc1ccccc1)NC(=O)[C@H](CC(C)C)NC(=O)[C@H](CCCNC(=N)N)NC(=O)[C@@H](NC(=O)[C@H](C)NC(=O)[C@H](CCC(=O)O)NC(=O)[C@H](CCC(=O)O)NC(=O)[C@H](CCC(=O)O)NC(=O)[C@H](C)NC(=O)[C@H](CCC(N)=O)NC(=O)[C@H](CCCCN)NC(=O)[C@H](CO)NC(=O)[C@H](CC(C)C)NC(=O)[C@H](CC(=O)O)NC(=O)[C@H](CO)NC(=O)[C@@H](NC(=O)[C@H](Cc1ccccc1)NC(=O)[C@@H](NC(=O)CNC(=O)[C@H](CCC(=O)O)NC(=O)CNC(=O)[C@@H](N)Cc1c[nH]cn1)[C@@H](C)O)[C@@H](C)O)C(C)C)C(=O)N[C@@H](CCC(=O)O)C(=O)N[C@@H](Cc1ccccc1)C(=O)N[C@@H](CC(C)C)C(=O)N[C@@H](CCCCN)C(=O)N[C@@H](CC(N)=O)C(N)=O [Compound 12] | 53
3 | 8.95 | CC[C@H](C)[C@H](NC(=O)[C@H](Cc1ccccc1)NC(=O)[C@H](CC(C)C)NC(=O)[C@H](CCCNC(=N)N)NC(=O)[C@@H](NC(=O)[C@H](C)NC(=O)[C@H](CCC(=O)O)NC(=O)[C@H](C)NC(=O)[C@H](CCC(=O)O)NC(=O)[C@H](CC(C)C)NC(=O)[C@H](CCC(N)=O)NC(=O)[C@H](CCCCN)NC(=O)[C@H](CO)NC(=O)[C@H](CC(C)C)NC(=O)[C@H](CC(=O)O)NC(=O)[C@H](CO)NC(=O)[C@@H](NC(=O)[C@H](Cc1ccccc1)NC(=O)[C@@H](NC(=O)CNC(=O)[C@H](CCC(=O)O)NC(=O)CNC(=O)[C@@H](N)Cc1c[nH]cn1)[C@@H](C)O)[C@@H](C)O)C(C)C)C(=O)N[C@@H](CCC(=O)O)C(=O)N[C@@H](Cc1ccccc1)C(=O)N[C@@H](CC(C)C)C(=O)N[C@@H](CCCCN)C(=O)N[C@@H](CC(N)=O)C(N)=O [Compound 14] | 54
4 | 8.98 | CC[C@H](C)[C@H](NC(=O)[C@H](Cc1ccccc1)NC(=O)[C@H](CC(C)C)NC(=O)[C@H](CCCNC(=N)N)NC(=O)[C@@H](NC(=O)[C@H](C)NC(=O)[C@H](C)NC(=O)[C@H](CCC(=O)O)NC(=O)[C@H](CCC(=O)O)NC(=O)[C@H](CC(C)C)NC(=O)[C@H](CCC(N)=O)NC(=O)[C@H](CCCCN)NC(=O)[C@H](CO)NC(=O)[C@H](CC(C)C)NC(=O)[C@H](CC(=O)O)NC(=O)[C@H](CO)NC(=O)[C@@H](NC(=O)[C@H](Cc1ccccc1)NC(=O)[C@@H](NC(=O)CNC(=O)[C@H](CCC(=O)O)NC(=O)CNC(=O)[C@@H](N)Cc1c[nH]cn1)[C@@H](C)O)[C@@H](C)O)C(C)C)C(=O)N[C@@H](CCC(=O)O)C(=O)N[C@@H](Cc1ccccc1)C(=O)N[C@@H](CC(C)C)C(=O)N[C@@H](CCCCN)C(=O)N[C@@H](CC(N)=O)C(N)=O [Compound 15] | 45

Continued, compound first:

Row | SMILES | pEC50 [1] | % drop in glucose (C57BLKS/J-m-db mice) [%]
5 | CC[C@H](C)[C@H](NC(=O)[C@H](Cc1ccccc1)NC(=O)[C@H](CC(C)C)NC(=O)[C@H](CCCNC(=N)N)NC(=O)[C@@H](NC(=O)[C@H](C)NC(=O)[C@H](CCC(=O)O)NC(=O)[C@H](CCC(=O)O)NC(=O)[C@H](CCC(=O)O)NC(=O)[C@H](CC(C)C)NC(=O)[C@H](CCC(N)=O)NC(=O)[C@H](CCCCN)NC(=O)[C@H](CO)NC(=O)[C@H](CC(C)C)NC(=O)[C@H](CC(=O)O)NC(=O)[C@H](CO)NC(=O)[C@@H](NC(=O)[C@H](Cc1ccccc1)NC(=O)[C@@H](NC(=O)CNC(=O)[C@H](CCC(=O)O)NC(=O)[C@H](C)NC(=O)[C@@H](N)Cc1c[nH]cn1)[C@@H](C)O)[C@@H](C)O)C(C)C)C(=O)N[C@@H](CCC(=O)O)C(=O)N[C@@H](Cc1ccccc1)C(=O)N[C@@H](CC(C)C)C(=O)N[C@@H](CCCCN)C(=O)N[C@@H](CC(N)=O)C(N)=O [Compound 4] | 9.66 | 27
6 | CC[C@H](C)[C@H](NC(=O)[C@H](Cc1ccccc1)NC(=O)[C@H](CC(C)C)NC(=O)[C@H](CCCNC(=N)N)NC(=O)[C@@H](NC(=O)[C@H](C)NC(=O)[C@H](CCC(=O)O)NC(=O)[C@H](CCC(=O)O)NC(=O)[C@H](CCC(=O)O)NC(=O)[C@H](CC(C)C)NC(=O)[C@H](CCC(N)=O)NC(=O)[C@H](CCCCN)NC(=O)[C@H](CO)NC(=O)[C@H](CC(C)C)NC(=O)[C@H](CC(=O)O)NC(=O)[C@H](CO)NC(=O)[C@@H](NC(=O)[C@H](Cc1ccccc1)NC(=O)[C@H](C)NC(=O)CNC(=O)[C@H](CCC(=O)O)NC(=O)CNC(=O)[C@@H](N)Cc1c[nH]cn1)[C@@H](C)O)C(C)C)C(=O)N[C@@H](CCC(=O)O)C(=O)N[C@@H](Cc1ccccc1)C(=O)N[C@@H](CC(C)C)C(=O)N[C@@H](CCCCN)C(=O)N[C@@H](CC(N)=O)C(N)=O [Compound 5] | 8.01 | 47
7 | CC[C@H](C)[C@H](NC(=O)[C@H](Cc1ccccc1)NC(=O)[C@H](CC(C)C)NC(=O)[C@H](CCCNC(=N)N)NC(=O)[C@@H](NC(=O)[C@H](C)NC(=O)[C@H](CCC(=O)O)NC(=O)[C@H](CCC(=O)O)NC(=O)[C@H](CCC(=O)O)NC(=O)[C@H](CC(C)C)NC(=O)[C@H](CCC(N)=O)NC(=O)[C@H](CCCCN)NC(=O)[C@H](CO)NC(=O)[C@H](CC(C)C)NC(=O)[C@H](CC(=O)O)NC(=O)[C@H](CO)NC(=O)[C@@H](NC(=O)[C@H](C)NC(=O)[C@@H](NC(=O)CNC(=O)[C@H](CCC(=O)O)NC(=O)CNC(=O)[C@@H](N)Cc1c[nH]cn1)[C@@H](C)O)[C@@H](C)O)C(C)C)C(=O)N[C@@H](CCC(=O)O)C(=O)N[C@@H](Cc1ccccc1)C(=O)N[C@@H](CC(C)C)C(=O)N[C@@H](CCCCN)C(=O)N[C@@H](CC(N)=O)C(N)=O [Compound 6] | 7.10 | 40
8 | CC[C@H](C)[C@H](NC(=O)[C@H](Cc1ccccc1)NC(=O)[C@H](CC(C)C)NC(=O)[C@H](CCCNC(=N)N)NC(=O)[C@@H](NC(=O)[C@H](C)NC(=O)[C@H](CCC(=O)O)NC(=O)[C@H](CCC(=O)O)NC(=O)[C@H](CCC(=O)O)NC(=O)[C@H](CC(C)C)NC(=O)[C@H](CCC(N)=O)NC(=O)[C@H](CCCCN)NC(=O)[C@H](CO)NC(=O)[C@H](CC(C)C)NC(=O)[C@H](CC(=O)O)NC(=O)[C@H](C)NC(=O)[C@@H](NC(=O)[C@H](Cc1ccccc1)NC(=O)[C@@H](NC(=O)CNC(=O)[C@H](CCC(=O)O)NC(=O)CNC(=O)[C@@H](N)Cc1c[nH]cn1)[C@@H](C)O)[C@@H](C)O)C(C)C)C(=O)N[C@@H](CCC(=O)O)C(=O)N[C@@H](Cc1ccccc1)C(=O)N[C@@H](CC(C)C)C(=O)N[C@@H](CCCCN)C(=O)N[C@@H](CC(N)=O)C(N)=O [Compound 7] | 7.20 | 31
9 | CC[C@H](C)[C@H](NC(=O)[C@H](Cc1ccccc1)NC(=O)[C@H](CC(C)C)NC(=O)[C@H](CCCNC(=N)N)NC(=O)[C@@H](NC(=O)[C@H](C)NC(=O)[C@H](CCC(=O)O)NC(=O)[C@H](CCC(=O)O)NC(=O)[C@H](CCC(=O)O)NC(=O)[C@H](CC(C)C)NC(=O)[C@H](CCC(N)=O)NC(=O)[C@H](CCCCN)NC(=O)[C@H](CO)NC(=O)[C@H](C)NC(=O)[C@H](CC(=O)O)NC(=O)[C@H](CO)NC(=O)[C@@H](NC(=O)[C@H](Cc1ccccc1)NC(=O)[C@@H](NC(=O)CNC(=O)[C@H](CCC(=O)O)NC(=O)CNC(=O)[C@@H](N)Cc1c[nH]cn1)[C@@H](C)O)[C@@H](C)O)C(C)C)C(=O)N[C@@H](CCC(=O)O)C(=O)N[C@@H](Cc1ccccc1)C(=O)N[C@@H](CC(C)C)C(=O)N[C@@H](CCCCN)C(=O)N[C@@H](CC(N)=O)C(N)=O [Compound 8] | 8.17 | 44
10 | CC[C@H](C)[C@H](NC(=O)[C@H](Cc1ccccc1)NC(=O)[C@H](CC(C)C)NC(=O)[C@H](CCCNC(=N)N)NC(=O)[C@@H](NC(=O)[C@H](C)NC(=O)[C@H](CCC(=O)O)NC(=O)[C@H](CCC(=O)O)NC(=O)[C@H](CCC(=O)O)NC(=O)[C@H](CC(C)C)NC(=O)[C@H](CCC(N)=O)NC(=O)[C@H](CCCCN)NC(=O)[C@H](C)NC(=O)[C@H](CC(C)C)NC(=O)[C@H](CC(=O)O)NC(=O)[C@H](CO)NC(=O)[C@@H](NC(=O)[C@H](Cc1ccccc1)NC(=O)[C@@H](NC(=O)CNC(=O)[C@H](CCC(=O)O)NC(=O)CNC(=O)[C@@H](N)Cc1c[nH]cn1)[C@@H](C)O)[C@@H](C)O)C(C)C)C(=O)N[C@@H](CCC(=O)O)C(=O)N[C@@H](Cc1ccccc1)C(=O)N[C@@H](CC(C)C)C(=O)N[C@@H](CCCCN)C(=O)N[C@@H](CC(N)=O)C(N)=O [Compound 9] | 8.77 | 41
